Measurements reported in BindingDB's records for doi:10.1021/jm051104t (University of Minnesota, 2006).

Test: Cytotoxicity against HEK293 cells transfected with recombinant AOR by MTT assay

Row | SMILES | IC50
1 | CC1=C(CO)C2=C(C)C3(CC3)[C@@](C)(O)C(=O)C2=C1 [IROFULVEN] | 55 nM
2 | CC1=CC2=C(C)C3(CC3)[C@@](C)(O)C(=O)C2=C1 [ACYLFULVENE] | 95 nM
3 | CC1=C(CO)C2=C(C)C3(CC3)[C@](C)(O)C(=O)C2=C1 | 1420 nM
4 | CC1=CC2=C(C)C3(CC3)[C@](C)(O)C(=O)C2=C1 | 5000 nM
